Where a name gives a salt, the structure may show the parent alone.
The compounds below were run against T1, HIV integrase (Human immunodeficiency virus type 1 group M subtype B, UniProt P12497, F1332H) (assay: Determination of enzyme (HIV integrase) inhibitory activity). Settings: recombinant HIV integrase (F185H), strand transfer ELISA, absorbance at 450 nm.
T1 construct: HIV integrase full length gene; made in house; host or cells: Escherichia coli BL21(DE3), plasmid pET21a-INH
Format: biochemical
How it was run: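 Full-length integrase with F185H, expressed in E. coli and purified, was reacted for 60 min at 37 °C with compound and biotinylated donor DNA bound to streptavidin plates. Target DNA was added for 10 min, then anti-digoxigenin-peroxidase detection at A450; IC50 from % inhibition versus enzyme-free blank.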

First: COc1ccccc1-c1cn2ccn(Cc3cccc(Cl)c3)c(=O)c2c(O)c1=O [Example 132, 2-(3-chlorobenzyl)-9-hydroxy-7-(2-methoxyphenyl)-2H-pyrido[1,2-a]pyrazine-1,8-dione hydrochloride]
Second: O=c1c(-c2ccccc2O)cn2ccn(Cc3cccc(Cl)c3)c(=O)c2c1O [Example 141, 2-(3-chlorobenzyl)-9-hydroxy-7-(2-hydroxyphenyl)-2H-pyrido[1,2-a]pyrazine-1,8-dione]
The IC50 of the first is higher: 10 to 100 nM for the first, < 10 nM for the second.

First: COc1ccc(-c2cn3ccn(Cc4cccc(Cl)c4)c(=O)c3c(O)c2=O)cc1 [Example 133, 2-(3-chlorobenzyl)-9-hydroxy-7-(4-methoxyphenyl)-2H-pyrido[1,2-a]pyrazine-1,8-dione hydrochloride]
Second: O=c1c(-c2ccc(O)cc2)cn2ccn(Cc3cccc(Cl)c3)c(=O)c2c1O [Example 142, 2-(3-chlorobenzyl)-9-hydroxy-7-(4-hydroxyphenyl)-2H-pyrido[1,2-a]pyrazine-1,8-dione]
The IC50 of the first is lower: < 10 nM for the first, 10 to 100 nM for the second. The first is the more potent here.

`CCc1cn2ccn(Cc3cccc(Cl)c3)c(=O)c2c(O)c1=O` [Example 134, 2-(3-chlorobenzyl)-7-ethyl-9-hydroxy-2H-pyrido[1,2-a]pyrazine-1,8-dione hydrochloride] and `Nc1cn2ccn(Cc3cccc(Cl)c3)c(=O)c2c(O)c1=O` [Example 161, 7-amino-2-(3-chlorobenzyl)-9-hydroxy-2H-pyrido[1,2-a]pyrazine-1,8-dione hydrochloride] fall in the same range of IC50: 10 to 100 nM for the first, 10 to 100 nM for the second.

First: Cc1cccc(C)c1-c1cn2ccn(Cc3cccc(Cl)c3)c(=O)c2c(O)c1=O [Example 135, 2-(3-chlorobenzyl)-7-(2,6-dimethylphenyl)-9-hydroxy-2H-pyrido[1,2-a]pyrazine-1,8-dione hydrochloride]
Second: O=c1c(-c2cccc(O)c2)cn2ccn(Cc3cccc(Cl)c3)c(=O)c2c1O [Example 136, 2-(3-chlorobenzyl)-9-hydroxy-7-(3-hydroxyphenyl)-2H-pyrido[1,2-a]pyrazine-1,8-dione]
The IC50 of the first is higher: 10 to 100 nM for the first, < 10 nM for the second. The second is the more potent here.

`O=C(c1ccccc1)c1cn2ccn(Cc3cccc(Cl)c3)c(=O)c2c(O)c1=O` [Example 137, 7-benzoyl-2-(3-chlorobenzyl)-9-hydroxy-2H-pyrido[1,2-a]pyrazine-1,8-dione hydrochloride] and `O=c1c(Cc2ccccc2)cn2ccn(Cc3cccc(Cl)c3)c(=O)c2c1O` [Example 140, 7-benzyl-2-(3-chlorobenzyl)-9-hydroxy-2H-pyrido[1,2-a]pyrazine-1,8-dione hydrochloride] fall in the same range of IC50: 10 to 100 nM for the first, 10 to 100 nM for the second.

`CCc1ccccc1-c1cn2ccn(Cc3cccc(Cl)c3)c(=O)c2c(O)c1=O` [Example 138, 2-(3-chlorobenzyl)-7-(2-ethylphenyl)-9-hydroxy-2H-pyrido[1,2-a]pyrazine-1,8-dione hydrochloride] and `O=c1c(-c2ncccn2)cn2ccn(Cc3cccc(Cl)c3)c(=O)c2c1O` [Example 170, 2-(3-chlorobenzyl)-9-hydroxy-7-(pyrimidin-2-yl)-2H-pyrido[1,2-a]pyrazine-1,8-dione hydrochloride] fall in the same range of IC50: 10 to 100 nM for the first, 10 to 100 nM for the second.

`CC(C)c1cn(Cc2cccc(Cl)c2)c(=O)c2c(O)c(=O)c(-c3cccc(Cl)c3)cn12` [Example 139, 2-(3-chlorobenzyl)-7-(3-chlorophenyl)-9-hydroxy-4-isopropyl-2H-pyrido[1,2-a]pyrazine-1,8-dione] and `Cn1ccnc1-c1cn2ccn(Cc3cccc(Cl)c3)c(=O)c2c(O)c1=O` [Example 148, 2-(3-chlorobenzyl)-9-hydroxy-7-(1-methyl-1H-imidazol-2-yl)-2H-pyrido[1,2-a]pyrazine-1,8-dione hydrochloride] fall in the same range of IC50: 10 to 100 nM for the first, 10 to 100 nM for the second.

Compared with `Cn1cc2c(c(O)c1=O)C(=O)N(Cc1cccc(C(F)(F)F)c1)CC2` [Example 143, 8-hydroxy-6-methyl-2-(3-trifluoromethylbenzyl)-2,3,4,6-tetrahydro-2,6-naphthyridine-1,7-dione], `COc1cccc(CN2CCc3cn(C)c(=O)c(O)c3C2=O)c1` [Example 144, 8-hydroxy-2-(3-methoxybenzyl)-6-methyl-2,3,4,6-tetrahydro-2,6-naphthyridine-1,7-dione] is lower in IC50: 100 to 1000 nM for the first, 10 to 100 nM for the second.

`Cn1nc2ccn(Cc3cccc(Cl)c3)c(=O)c2c(O)c1=O` [Example 145, 6-(3-chlorobenzyl)-4-hydroxy-2-methyl-2,6-dihydropyrido[4,3-c]pyridazine-3,5-dione] and `O=c1ccn2ncn(Cc3cccc(Cl)c3)c(=O)c2c1O` [Example 146, 3-(3-chlorobenzyl)-5-hydroxy-3H-pyrido[2,1-f][1,2,4]triazine-4,6-dione] fall in the same range of IC50: 100 to 1000 nM for the first, 100 to 1000 nM for the second.

First: COC(=O)c1cn2ccn(Cc3cccc(Cl)c3)c(=O)c2c(O)c1=O [Example 147, methyl 2-(3-chlorobenzyl)-9-hydroxy-1,8-dioxo-1,8-dihydro-2H-pyrido[1,2-a]pyrazine-7-carboxylate hydrochloride]
Second: CNC(=O)c1cn2ccn(Cc3cccc(Cl)c3)c(=O)c2c(O)c1=O [Example 155, N-methyl-2-(3-chlorobenzyl)-9-hydroxy-1,8-dioxo-1,8-dihydro-2H-pyrido[1,2-a]pyrazine-7-carboxamide]
The IC50 of the first is higher: 10 to 100 nM for the first, < 10 nM for the second.

Compared with `CC(C)C(=O)c1cn2ccn(Cc3cccc(Cl)c3)c(=O)c2c(O)c1=O` [Example 149, 2-(3-chlorobenzyl)-9-hydroxy-7-isobutyryl-2H-pyrido[1,2-a]pyrazine-1,8-dione hydrochloride], `CC(C)OC(=O)c1cn2ccn(Cc3cccc(Cl)c3)c(=O)c2c(O)c1=O` [Example 150, isopropyl 2-(3-chlorobenzyl)-9-hydroxy-1,8-dioxo-1,8-dihydro-2H-pyrido[1,2-a]pyrazine-7-carboxylate] is higher in IC50: < 10 nM for the first, 10 to 100 nM for the second.

`O=c1ccn2ccn(Cc3ccc(Cl)cc3)c(=O)c2c1O` [Example 151, 2-(4-chlorobenzyl)-9-hydroxy-2H-pyrido[1,2-a]pyrazine-1,8-dione hydrochloride] and `O=c1ccn2ccn(Cc3ccc(Br)cc3)c(=O)c2c1O` [Example 157, 2-(4-bromobenzyl)-9-hydroxy-2H-pyrido[1,2-a]pyrazine-1,8-dione hydrochloride] fall in the same range of IC50: 10 to 100 nM for the first, 10 to 100 nM for the second.

First: O=C(O)c1cn2ccn(Cc3cccc(Cl)c3)c(=O)c2c(O)c1=O [Example 152, 2-(3-chlorobenzyl)-9-hydroxy-1,8-dioxo-1,8-dihydro-2H-pyrido[1,2-a]pyrazine-7-carboxylic acid hydrochloride]
Second: NC(=O)c1cn2ccn(Cc3cccc(Cl)c3)c(=O)c2c(O)c1=O [Example 167, 2-(3-chlorobenzyl)-9-hydroxy-1,8-dioxo-1,8-dihydro-2H-pyrido[1,2-a]pyrazine-7-carboxamide]
The IC50 of the first is higher: 100 to 1000 nM for the first, 10 to 100 nM for the second.

`CN(C)C(=O)c1cn2ccn(Cc3cccc(Cl)c3)c(=O)c2c(O)c1=O` [Example 153, N,N-dimethyl-2-(3-chlorobenzyl)-9-hydroxy-1,8-dioxo-1,8-dihydro-2H-pyrido[1,2-a]pyrazine-7-carboxamide] and `CCN(CC)C(=O)c1cn2ccn(Cc3cccc(Cl)c3)c(=O)c2c(O)c1=O` [Example 156, N,N-diethyl-2-(3-chlorobenzyl)-9-hydroxy-1,8-dioxo-1,8-dihydro-2H-pyrido[1,2-a]pyrazine-7-carboxamide] fall in the same range of IC50: 10 to 100 nM for the first, 10 to 100 nM for the second.

`CC(C)NC(=O)c1cn2ccn(Cc3cccc(Cl)c3)c(=O)c2c(O)c1=O` [Example 154, 2-(3-chlorobenzyl)-9-hydroxy-1,8-dioxo-1,8-dihydro-2H-pyrido[1,2-a]pyrazine-7-carboxylic acid isopropylamide] and `CC(=O)Nc1cn2ccn(Cc3cccc(Cl)c3)c(=O)c2c(O)c1=O` [Example 165, N-[2-(3-chlorobenzyl)-9-hydroxy-1,8-dioxo-1,8-dihydro-2H-pyrido[1,2-a]pyrazin-7-yl]acetamide] fall in the same range of IC50: 10 to 100 nM for the first, 10 to 100 nM for the second.

`O=c1ccn2ccn(Cc3cccc(Br)c3)c(=O)c2c1O` [Example 158, 2-(3-bromobenzyl)-9-hydroxy-2H-pyrido[1,2-a]pyrazine-1,8-dione hydrochloride] and `COc1c(Cl)cccc1Cn1ccn2ccc(=O)c(O)c2c1=O` [Example 168, 2-(3-chloro-2-methoxybenzyl)-9-hydroxy-2H-pyrido[1,2-a]pyrazine-1,8-dione hydrochloride] fall in the same range of IC50: 10 to 100 nM for the first, 10 to 100 nM for the second.

`CC(C)(C)COC(=O)c1cn2ccn(Cc3cccc(Cl)c3)c(=O)c2c(O)c1=O` [Example 159, 2,2-dimethylpropyl 2-(3-chlorobenzyl)-9-hydroxy-1,8-dioxo-1,8-dihydro-2H-pyrido[1,2-a]pyrazine-7-carboxylate] and `O=C(OC1CCCCC1)c1cn2ccn(Cc3cccc(Cl)c3)c(=O)c2c(O)c1=O` [Example 160, cyclohexyl 2-(3-chlorobenzyl)-9-hydroxy-1,8-dioxo-1,8-dihydro-2H-pyrido[1,2-a]pyrazine-7-carboxylate] fall in the same range of IC50: 10 to 100 nM for the first, 10 to 100 nM for the second.

`Cc1nn(Cc2cccc(Cl)c2)c(=O)c2c(O)c(=O)ccn12` [Example 162, 2-(3-chlorobenzyl)-9-hydroxy-4-methyl-2H-pyrido[1,2-d][1,2,4]triazine-1,8-dione hydrochloride] and `O=c1c(-c2nnc[nH]2)cn2ccn(Cc3cccc(Cl)c3)c(=O)c2c1O` [Example 164, 2-(3-chlorobenzyl)-9-hydroxy-7-(4H-1,2,4-triazol-3-yl)-2H-pyrido[1,2-a]pyrazine-1,8-dione hydrochloride] fall in the same range of IC50: 10 to 100 nM for the first, 10 to 100 nM for the second.

First: O=c1c(-c2nccs2)cn2ccn(Cc3cccc(Cl)c3)c(=O)c2c1O [Example 163, 2-(3-chlorobenzyl)-9-hydroxy-7-(thiazol-2-yl)-2H-pyrido[1,2-a]pyrazine-1,8-dione hydrochloride]
Second: COc1cc(Cl)ccc1Cn1ccn2ccc(=O)c(O)c2c1=O [Example 166, 2-(4-chloro-2-methoxybenzyl)-9-hydroxy-2H-pyrido[1,2-a]pyrazine-1,8-dione hydrochloride]
The IC50 of the first is lower: < 10 nM for the first, 10 to 100 nM for the second.

`O=c1ccn2ccn(CCOc3ccccc3Cl)c(=O)c2c1O` [Example 169, 2-[2-(2-chlorophenoxy)ethyl]-9-hydroxy-2H-pyrido[1,2-a]pyrazine-1,8-dione hydrochloride] gave an IC50 of 100 to 1000 nM.

Reference: patent US7211572B2 (Japan Tobacco Inc., priority 2003, dated 2007)
